Publication PMC9241695, “Selective Metal Chelation by a Thiosemicarbazone Derivative Interferes with Mitochondrial Respiration and Ribosome Biogenesis in Candida albicans” (Microbiology Spectrum, 2022)

What was measured:
[1] = system: C. albicans SC5314; assay: Respiratory activity by CTC staining; assay type: cell-based, Candida albicans; conditions: 6 h, 1 mM CTC; 19ak 0.125-1 μg/mL, TPEN 0.05-0.4 μg/mL
Procedure: h (for C. albicans, C. krusei, C. tropicalis, C. parapsilosis) or 48 h (for C. neoformans, A. fumigatus). The MIC was determined based on visible growth inhibition compared with the control. All experiments were performed in duplicate.
Cytotoxicity testing. The cell lines HK2 and 16HBE were used to evaluate the cytotoxicity of 19ak, 19k and 19t. Cells in DMEM containing 10% fetal bovine serum (Gibco) were seeded in 96-well tissue culture plates at a cell density of 1 × 10^4 cells/mL and incubated for 24 h to allow adhesion. The supernatant was then replaced with fresh DMEM containing various concentrations of 19ak, 19k and 19t. […]
The effects of the compounds on cell proliferation were detected by measuring the absorbance at 570 nm in a microplate reader (BioTek, VT, USA). […]
the fluorescent complex […] (CTF) is commonly used to indicate the intensity of microbial respiration. C. albicans SC5314 treated with 19ak was stained with 1 mM CTC for 30 min, followed by flow cytometry analysis of respiratory activity based on fluorescence intensity. Images of cells were obtained using a fluorescence microscope (IX71, Olympus, Tokyo, Japan). […] After an additional 2 h of incubation, OD450 in each well was detected with a microplate reader. […]
Mitochondrial complex activity was expressed as nmol/min/mg protein. […]

[2] = system: CAT; assay: Catalase (CAT) activity in treated cells; assay type: cell-based; conditions: 0.5 μg/mL or above, 6 h
Procedure: (§1) Determination of SOD activity. SOD activity was measured using the Superoxide Dismutase Activity Assay Kit (Njjcbio, Nanjing, China) following the manufacturer's instructions. An overnight culture of C. albicans SC5314 was adjusted to 1 × 10^7 cells/mL with RPMI1640 medium and treated with 19ak at a final concentration of 0, 0.125, 0.25, 0.5, or 1 μg/mL for 6 h. After collection by centrifugation, the cells were broken by glass beads in extraction buffer and centrifuged at 4°C. The absorbance of the supernatant of each sample was measured with a microplate reader at450 nm.
(§2) Determination of catalase (CAT) activity. CAT activity was measured by using a Catalase Assay Kit (Solarbio, Beijing, China) following the manufacturer's instructions. An overnight culture of C. albicans SC5314 was adjusted to 1 × 10^6 cells/mL with RPMI1640 medium and treated as described above for SOD activity.
(§3) The decomposition of H2O2 is directly accompanied by a decrease in absorbance at 240 nm, and the difference in absorbance per unit time (ΔA240) is a measure of […]
(§4) Quantitative real-time polymerase chain reaction (qPCR) analysis. C. albicans SC5314 cells (1 × 10^6 cells/mL) were incubated with or without 19ak (0.5,2 μg/mL) in RPMI1640 medium for 6 h. Total RNA was extracted using the hot phenol method, and the RNA quality was analyzed using a spectrophotometer (Eppendorf, Hamburg, Germany). […]

[3] = system: SOD; assay: SOD activity in treated cells; assay type: cell-based, Candida albicans; conditions: 0.5 μg/mL or above, 6 h
Procedure: as §1, §2, §3, §4

[4] = system: C. albicans SC5314; assay: CCK-8 reduction assay, mitochondrial dehydrogenase activity; assay type: cell-based, Candida albicans; conditions: 0.125 μg/mL to 5 μg/mL
Procedure: The Cell Counting Kit-8
(CCK-8) assay is used to measure the dehydrogenase activity in the mitochondria of C. albicans or mammalian cells. C. albicans SC5314 (5 × 10^6 cells/mL in RPMI1640 medium) were treated with different concentrations of 19ak in 96-well plates at 30°C for 12 h or 48 h. 10 μL of CCK-8 solution was added to each well. After an additional 2 h of incubation, OD450 in each well was detected with a microplate reader. […]

[5] = system: C. albicans SC5314; assay: Drug resistance study by serial passage; assay type: cell-based, Candida albicans; conditions: RPMI 1640 medium, 40-day period, passages at 0.5 × MIC

**Q.** C/C(=N\NC(=S)N(C)C)c1ccccn1 [Compound 19ak] was tested. Which “Mitochondrial respiratory activity (CTC fluorescence intensity)” value [1] did it give?
**A.** dose-dependently reduced

**Q.** And the CAT activity [2]?
**A.** increased

**Q.** What about the SOD activity [3] of the same molecule?
**A.** increased

**Q.** What about the “Mitochondrial dehydrogenase activity of C. albicans (CCK-8, absorbance at 450 nm)” value [4] of the same molecule?
**A.** decreased accordingly in a dose-dependent manner

**Q.** And the “Change of MIC after repeated exposure” value [5]?
**A.** did not alter the MIC
